Results from patent publication US20260365682A1, “MODULATORS OF TNF-ALPHA ACTIVITY” (Forward Therapeutics, Inc., priority 2022, published 2026).
Like-named read-outs stand apart in the source and are kept apart here.

Biological target: T1, TNF-α (Homo sapiens, UniProt P01375)
T1 construct: purchased R&D 210-TA-020/CF
Assay: TNF-α Induced HEK Blue Cellular Assay (secreted alkaline phosphatase expression, QUANTI-Blue)
Format: cell-based
Conditions: HEK Blue TNFα reporter cells, TNF-α 100 μg/ml, 24 hrs at 37° C., inhibition of secreted alkaline phosphatase
Method in brief: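 HEK Blue TNFα reporter cells (10,000/well) in DMEM with 10% FBS received compound ([…] to 0.5 nM final) and TNF-α at […] final for 24 h at 37° C. Secreted alkaline phosphatase read with QUANTI-Blue at 620 nm. IC50 came from a 4-parameter logistic fit after normalising to unstimulated and stimulated DMSO controls.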

T1 sequence (P01375 77-233 limits assumed): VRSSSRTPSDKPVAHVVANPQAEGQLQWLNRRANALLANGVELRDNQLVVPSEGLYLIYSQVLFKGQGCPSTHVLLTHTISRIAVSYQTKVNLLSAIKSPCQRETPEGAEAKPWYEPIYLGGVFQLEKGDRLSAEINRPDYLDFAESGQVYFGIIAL

SMILES	IC50 (IC50 value)	IC50 (read-out: IC50 value)
[2H]C([2H])([2H])N1C(=O)c2cccc(OC(F)F)c2[C@H]2C[C@@H]1c1nc3ccc(C#CC4CN(CC(F)F)C4)cc3n12 [Example 198, (7R,14R)-11-((1-(2,2-difluoroethyl)azetidin-3-yl)ethynyl)-1-(difluoromethoxy)-6-(methyl-d3)-6,7-dihydro-7,14-methanobenzo[f]benzo[4,5]imidazo[1,2-a][1,4]diazocin-5(14H)-one]	10000 to 30000 nM	
[2H]C([2H])([2H])N1C(=O)c2cccc(OC(F)F)c2[C@H]2C[C@@H]1c1nc3ccc(C#C[C@@H](C)O)cc3n12 [Example 179, (7R,14R)-1-(difluoromethoxy)-11-((R)-3-hydroxybut-1-yn-1-yl)-6-(methyl-d3)-6,7-dihydro-7,14-methanobenzo[f]benzo[4,5]imidazo[1,2-a][1,4]diazocin-5(14H)-one]		10000 to 30000 nM
[2H]C([2H])([2H])N1C(=O)c2cccc(OC(F)F)c2[C@H]2C[C@@H]1c1nc3ccc(C#CC(C)(C)N)cc3n12 [Example 64, (7R,14R)-11-(3-amino-3-methylbut-1-yn-1-yl)-1-(difluoromethoxy)-6-(methyl-d3)-6,7-dihydro-7,14-methanobenzo[f]benzo[4,5]imidazo[1,2-a][1,4]diazocin-5(14H)-one]		10000 to 30000 nM
[2H]C([2H])([2H])N1C(=O)c2cccc(OC(F)F)c2[C@H]2C[C@@H]1c1nc3ccc(C#CCCCN4CCN(C)CC4)cc3n12 [Example 133, (7R,14R)-1-(difluoromethoxy)-6-(methyl-d3)-11-(5-(4-methylpiperazin-1-yl)pent-1-yn-1-yl)-6,7-dihydro-7,14-methanobenzo[f]benzo[4,5]imidazo[1,2-a][1,4]diazocin-5(14H)-one]		100 to 1000 nM
[2H]C([2H])([2H])N1C(=O)c2cccc(OC(F)F)c2[C@H]2C[C@@H]1c1nc3ccc(C#CCCN)cc3n12 [Example 123, (7R,14R)-11-(4-aminobut-1-yn-1-yl)-1-(difluoromethoxy)-6-(methyl-d3)-6,7-dihydro-7,14-methanobenzo[f]benzo[4,5]imidazo[1,2-a][1,4]diazocin-5(14H)-one]		100 to 1000 nM
[2H]C([2H])([2H])N1C(=O)c2cccc(OC(F)F)c2[C@H]2C[C@@H]1c1nc3ccc(C#CCN4CC(F)C4)cc3n12 [Example 232, (7R,14R)-1-(difluoromethoxy)-11-(3-(3-fluoroazetidin-1-yl)prop-1-yn-1-yl)-6-(methyl-d3)-6,7-dihydro-7,14-methanobenzo[f]benzo[4,5]imidazo[1,2-a][1,4]diazocin-5(14H)-one]		100 to 1000 nM
[2H]C([2H])([2H])N1C(=O)c2cccc(OC(F)F)c2[C@H]2C[C@@H]1c1nc3ccc(C#CC4CCNC4)cc3n12 (stereo partly drawn) [Example 71, (7R,14R)-1-(difluoromethoxy)-6-(methyl-d3)-11-(pyrrolidin-3-ylethynyl)-6,7-dihydro-7,14-methanobenzo[f]benzo[4,5]imidazo[1,2-a][1,4]diazocin-5(14H)-one]		100 to 1000 nM
[2H]C([2H])([2H])N1C(=O)c2cccc(OC(F)F)c2[C@H]2C[C@@H]1c1nc3ccc(C#Cc4cccnn4)cc3n12 [Example 33, (7R,14R)-1-(difluoromethoxy)-6-(methyl-d3)-11-(pyridazin-3-ylethynyl)-6,7-dihydro-7,14-methanobenzo[f]benzo[4,5]imidazo[1,2-a][1,4]diazocin-5(14H)-one]		10000 to 30000 nM
[2H]C([2H])([2H])N1C(=O)c2cccc(OC(F)F)c2[C@H]2C[C@@H]1c1nc3ccc(C#CC4CN(CC(C)(C)O)C4)cc3n12 [Example 197, (7R,14R)-1-(difluoromethoxy)-11-((1-(2-hydroxy-2-methylpropyl)azetidin-3-yl)ethynyl)-6-(methyl-d3)-6,7-dihydro-7,14-methanobenzo[f]benzo[4,5]imidazo[1,2-a][1,4]diazocin-5(14H)-one]		10000 to 30000 nM
[2H]C([2H])([2H])N1C(=O)c2cccc(OC(F)F)c2[C@H]2C[C@@H]1c1nc3ccc(C#CC(O)CC)cc3n12 (single isomer, unassigned) [Example 208, (7R,14R)-1-(difluoromethoxy)-11-((R or S)-3-hydroxypent-1-yn-1-yl)-6-(methyl-d3)-6,7-dihydro-7,14-methanobenzo[f]benzo[4,5]imidazo[1,2-a][1,4]diazocin-5(14H)-one]		10000 to 30000 nM
[2H]C([2H])([2H])N1C(=O)c2cccc(OC(F)F)c2[C@H]2C[C@@H]1c1nc3ccc(C#CC(C)CCO)cc3n12 (single isomer, unassigned) [Example 240, (7R,14R)-1-(difluoromethoxy)-11-((R or S)-5-hydroxy-3-methylpent-1-yn-1-yl)-6-(methyl-d3)-6,7-dihydro-7,14-methanobenzo[f]benzo[4,5]imidazo[1,2-a][1,4]diazocin-5(14H)-one]		< 100 nM
Cn1nncc1C#Cc1ccc2nc3n(c2c1)[C@@H]1C[C@H]3NC(=O)c2cccc(OC(F)F)c21 [Example 19, (7R,14R)-1-(difluoromethoxy)-11-((1-methyl-1H-1,2,3-triazol-5-yl)ethynyl)-6,7-dihydro-7,14-methanobenzo[f]benzo[4,5]imidazo[1,2-a][1,4]diazocin-5(14H)-one]		< 100 nM
[2H]C([2H])([2H])N1C(=O)c2cccc(OC(F)F)c2[C@H]2C[C@@H]1c1nc3ccc(C#CCNC(C)C)cc3n12 [Example 66, (7R,14R)-1-(difluoromethoxy)-11-(3-(isopropylamino)prop-1-yn-1-yl)-6-(methyl-d3)-6,7-dihydro-7,14-methanobenzo[f]benzo[4,5]imidazo[1,2-a][1,4]diazocin-5(14H)-one]		100 to 1000 nM
CN1C(=O)c2cccc(OC(F)F)c2[C@H]2C[C@@H]1c1nc3ccc(C#Cc4cncnc4)cc3n12 [Example 4, (1R,11R)-18-(difluoromethoxy)-12-methyl-5-[2-(pyrimidin-5-yl)ethynyl]-2,9,12-triazapentacyclo[9.8.1.0^{2,10}.0^{3,8}.0^{14,19}]icosa-3(8),4,6,9,14(19),15,17-heptaen-13-one]		< 100 nM
[2H]C([2H])([2H])N1C(=O)c2cccc(OC(F)F)c2[C@H]2C[C@@H]1c1nc3ccc(C#CCCNC(=O)C(C)(C)C)cc3n12 [Example 215, N-(4-((7R,14R)-1-(difluoromethoxy)-6-(methyl-d3)-5-oxo-5,6,7,14-tetrahydro-7,14-methanobenzo[f]benzo[4,5]imidazo[1,2-a][1,4]diazocin-11-yl)but-3-yn-1-yl)pivalamide]		10000 to 30000 nM
[2H]C([2H])([2H])N1C(=O)c2cccc(OC(F)F)c2[C@H]2C[C@@H]1c1nc3ccc(C#CCCN4CC(F)C4)cc3n12 [Example 228, (7R,14R)-1-(difluoromethoxy)-11-(4-(3-fluoroazetidin-1-yl)but-1-yn-1-yl)-6-(methyl-d3)-6,7-dihydro-7,14-methanobenzo[f]benzo[4,5]imidazo[1,2-a][1,4]diazocin-5(14H)-one]		< 100 nM

More lines, now with the values ahead:

IC50 (IC50 value)	IC50 (read-out: IC50 value)	SMILES
	< 100 nM	[2H]C([2H])([2H])N1C(=O)c2cccc(OC(F)F)c2[C@H]2C[C@@H]1c1nc3ccc(C#CC4CCCN(C)C4)cc3n12 (stereo partly drawn) [Example 63, (7R,14R)-1-(difluoromethoxy)-6-(methyl-d3)-11-((1-methylpiperidin-3-yl)ethynyl)-6,7-dihydro-7,14-methanobenzo[f]benzo[4,5]imidazo[1,2-a][1,4]diazocin-5(14H)-one]
	< 100 nM	[2H]C([2H])([2H])N1C(=O)c2cccc(OC(F)F)c2[C@H]2C[C@@H]1c1nc3ccc(C#CCCO)cc3n12 [Example 111, (7R,14R)-1-(difluoromethoxy)-11-(4-hydroxybut-1-yn-1-yl)-6-(methyl-d3)-6,7-dihydro-7,14-methanobenzo[f]benzo[4,5]imidazo[1,2-a][1,4]diazocin-5(14H)-one]
	< 100 nM	[2H]C([2H])([2H])N1C(=O)c2cccc(OC(F)F)c2[C@H]2C[C@@H]1c1nc3ccc(C#C)cc3n12 [Example 44, (7R,14R)-1-(difluoromethoxy)-11-ethynyl-6-(methyl-d3)-6,7-dihydro-7,14-methanobenzo[f]benzo[4,5]imidazo[1,2-a][1,4]diazocin-5(14H)-one]
	< 100 nM	[2H]C([2H])([2H])N1C(=O)c2cccc(OC(F)F)c2[C@H]2C[C@@H]1c1nc3ccc(C#Cc4cnsc4)cc3n12 [Example 36, (7R,14R)-1-(difluoromethoxy)-11-(isothiazol-4-ylethynyl)-6-(methyl-d3)-6,7-dihydro-7,14-methanobenzo[f]benzo[4,5]imidazo[1,2-a][1,4]diazocin-5(14H)-one]
	< 100 nM	CN1C(=O)c2cccc(OC(F)F)c2[C@H]2C[C@@H]1c1nc3ccc(C#Cc4cncn4C)cc3n12 [Example 9, (1R,11R)-18-(difluoromethoxy)-12-methyl-5-[2-(3-methylimidazol-4-yl)ethynyl]-2,9,12-triazapentacyclo[9.8.1.0^{2,10}.0^{3,8}.0^{14,19}]icosa-3(8),4,6,9,14(19),15,17-heptaen-13-one]
	< 100 nM	[2H]C([2H])([2H])N1C(=O)c2cccc(OC(F)F)c2[C@H]2C[C@@H]1c1nc3ccc(C#Cc4ccc(P(C)(C)=O)s4)cc3n12 [Example 107, (7R,14R)-1-(difluoromethoxy)-11-((5-(dimethylphosphoryl)thiophen-2-yl)ethynyl)-6-(methyl-d3)-6,7-dihydro-7,14-methanobenzo[f]benzo[4,5]imidazo[1,2-a][1,4]diazocin-5(14H)-one]
	< 100 nM	[2H]C([2H])([2H])N1C(=O)c2cccc(OC(F)F)c2[C@H]2C[C@@H]1c1nc3ccc(C#CCOC(F)F)cc3n12 [Example 131, (7R,14R)-1-(difluoromethoxy)-11-(3-(difluoromethoxy)prop-1-yn-1-yl)-6-(methyl-d3)-6,7-dihydro-7,14-methanobenzo[f]benzo[4,5]imidazo[1,2-a][1,4]diazocin-5(14H)-one]
	< 100 nM	[2H]C([2H])([2H])N1C(=O)c2cccc(OC(F)F)c2[C@H]2C[C@@H]1c1nc3ccc(C#CCCC4CC4)cc3n12 (single isomer, unassigned) [Example 137]
